The results in this text go back to patent US4156730A, “Pharmaceutically active compounds, preparation thereof, intermediates useful in such preparation and compositions containing the compounds” (Beecham Group Limited, priority 1976, dated 1979).

This assay deals with 5-hydroxytryptamine induced bronchoconstriction. The assay can be described thus: inhibition of 5-hydroxytryptamine induced bronchoconstriction (Konzett-Rossler preparation). It is filed as in vivo. As to conditions: Cavia porcellus, iv; intravenously; anaesthetised, artificially respired guinea pig; read-out: IC50 for inhibition of bronchoconstriction. From the text: The compounds were examined for their ability to inhibit 5-hydroxytryptamine induced bronchoconstriction in the anaesthetised, artifically respired guinea pig (Konzett-Rossler preparation - ref: H. Konzett and R. Rossler, 1940, Arch. exp. Path. Pharmak., 195, 71).

For `CCCCC(C)(O)CCCCN1C(=O)CC(=O)C1CCCCCCC(=O)OC` (stereo not shown) [Compound 30, 2-(6'-Methoxycarbonyl-n-hexyl)-1-(5"-hydroxy-5"-methyl-n-nonyl)-pyrrolidin-3,5-dione], the ED50 was found to be 0.012 mg/kg.
